Converted amounts (≈) assume the structure as drawn.
Assays:
Format in all cases: functional
[1] = tested on: Candida albicans; assay: Antifungal activity against Candida albicans IFO 0583 assessed as growth inhibition at 200 ug/disc after 48 hrs by agar disc-diffusion method; conditions: IFO 0583, 48 h, read-out: DIZ
[2] = tested on: Pseudomonas aeruginosa; assay: Antibacterial activity against Pseudomonas aeruginosa IFO 3448 assessed as growth inhibition at 200 ug/disc after 24 hrs by agar disc-diffusion method; conditions: IFO 3448, 24 h, read-out: DIZ
[3] = tested on: Escherichia coli; assay: Antibacterial activity against Escherichia coli IFO 3301 assessed as growth inhibition at 200 ug/disc after 24 hrs by agar disc-diffusion method; conditions: IFO 3301, 24 h, read-out: DIZ
[4] = tested on: Micrococcus luteus; assay: Antibacterial activity against Micrococcus luteus IFO 3232 assessed as growth inhibition at 200 ug/disc after 24 hrs by agar disc-diffusion method; conditions: IFO 3232, 24 h, read-out: DIZ
[5] = tested on: Bacillus subtilis; assay: Antibacterial activity against Bacillus subtilis IFO 3007 assessed as growth inhibition at 200 ug/disc after 24 hrs by agar disc-diffusion method; conditions: IFO 3007, 24 h, read-out: DIZ
[6] = tested on: Staphylococcus aureus; assay: Antibacterial activity against Staphylococcus aureus IFO 3060 assessed as growth inhibition at 200 ug/disc after 24 hrs by agar disc-diffusion method; conditions: IFO 3060, 24 h, read-out: DIZ
[7] = tested on: Micrococcus luteus; assay: Antibacterial activity against Micrococcus luteus IFO 3232 after 24 hrs by two fold dilution method; conditions: IFO 3232, 24 h
[8] = tested on: Bacillus subtilis; assay: Antibacterial activity against Bacillus subtilis IFO 3007 after 24 hrs by two fold dilution method; conditions: IFO 3007, 24 h
[9] = tested on: Staphylococcus aureus; assay: Antibacterial activity against Staphylococcus aureus IFO 3060 after 24 hrs by two fold dilution method; conditions: IFO 3060, 24 h

MIC [7] [µg/mL] | MIC [8] [µg/mL] | MIC [9] [µg/mL] | SMILES | zone of inhibition at 200 µg/disc [1] [mm] | zone of inhibition at 200 µg/disc [2] [mm] | zone of inhibition at 200 µg/disc [3] [mm] | zone of inhibition at 200 µg/disc [4] [mm] | zone of inhibition at 200 µg/disc [5] [mm] | zone of inhibition at 200 µg/disc [6] [mm]
– | – | – | S=c1n(CN2CCN(c3ccccc3)CC2)nc(C23CC4CC(CC(C4)C2)C3)n1-c1ccc(Cl)cc1 | < 10 | < 10 | < 10 | 14 | 17 | 16
16 (≈ 35.3 µM) | 4 (≈ 8.82 µM) | 4 (≈ 8.82 µM) | COc1ccccc1N1CCN(Cn2nc(C34CC5CC(CC(C5)C3)C4)n(C)c2=S)CC1 | < 10 | < 10 | 11 | 19 | 20 | 22
– | – | – | CCOc1ccc(NCn2nc(C34CC5CC(CC(C5)C3)C4)n(-c3ccc(Cl)cc3)c2=S)cc1 | < 10 | < 10 | < 10 | < 10 | < 10 | < 10
– | – | – | CCOC(=O)N1CCN(Cn2nc(C34CC5CC(CC(C5)C3)C4)n(/N=C/c3ccc(O)cc3)c2=S)CC1 | < 10 | < 10 | < 10 | 14 | 16 | 17
– | – | – | S=c1n(CNc2ccccc2Cl)nc(C23CC4CC(CC(C4)C2)C3)n1-c1ccc(Cl)cc1 | < 10 | < 10 | < 10 | < 10 | 11 | 16
– | – | – | S=c1n(CNc2cc(Cl)cc(Cl)c2)nc(C23CC4CC(CC(C4)C2)C3)n1-c1ccc(Cl)cc1 | < 10 | < 10 | < 10 | 11 | 13 | 12
– | – | – | S=c1n(CNc2ccc(Br)cc2)nc(C23CC4CC(CC(C4)C2)C3)n1-c1ccc(Cl)cc1 | < 10 | < 10 | < 10 | < 10 | < 10 | < 10
– | 16 (≈ 30.8 µM) | – | FC(F)(F)c1ccccc1NCn1nc(C23CC4CC(CC(C4)C2)C3)n(-c2ccc(Cl)cc2)c1=S | < 10 | 11 | 12 | 14 | 19 | 17
– | – | – | Cn1c(C23CC4CC(CC(C4)C2)C3)nn(CNc2ccc(Br)cc2)c1=S | < 10 | < 10 | < 10 | < 10 | < 10 | < 10
– | – | – | Fc1ccc(NCn2nc(C34CC5CC(CC(C5)C3)C4)n(-c3ccc(Cl)cc3)c2=S)cc1 | < 10 | < 10 | < 10 | 12 | 16 | 14
– | 2 (≈ 3.68 µM) | 2 (≈ 3.68 µM) | Oc1ccccc1/C=N/n1c(C23CC4CC(CC(C4)C2)C3)nn(CN2CCN(Cc3ccccc3)CC2)c1=S | < 10 | 11 | 11 | 17 | 21 | 19
– | 4 (≈ 7.62 µM) | 4 (≈ 7.62 µM) | CCOC(=O)N1CCN(Cn2nc(C34CC5CC(CC(C5)C3)C4)n(/N=C/c3ccccc3O)c2=S)CC1 | < 10 | < 10 | < 10 | 16 | 19 | 18
– | 16 (≈ 37.8 µM) | 8 (≈ 18.9 µM) | Cn1c(C23CC4CC(CC(C4)C2)C3)nn(CN2CCN(c3ccccc3)CC2)c1=S | < 10 | < 10 | < 10 | 14 | 18 | 19
– | – | – | FC(F)(F)c1cccc(NCn2nc(C34CC5CC(CC(C5)C3)C4)n(-c3ccc(Cl)cc3)c2=S)c1 | < 10 | < 10 | < 10 | 17 | 16 | 16
